Source: patent US10620188B2, “Using impedance-based cell response profiling to identify putative inhibitors for oncogene addicted targets or pathways” (ACEA Biosciences, Inc., priority 2002, dated 2020)
Like-named read-outs stand apart in the source and are kept apart here.

Tests used:
[1] = test system: H1993; test: Impedance-based TCRP of Met addicted H1993 cells (xCelligence); type: cell-based, human; details: for TCRP (Cell Index response): increasing concentrations; for IC50: read-out: IC50 (TCRP)
Protocol: The cell index was normalized at time of compound addition.
Cells were treated with ACEA348 (0-10 uM) for 30 min.
(§1) The cell index (CI) was normalized at time of compound addition.
The time-dependent cell response profiles (TCRP) were monitored prior to and after the compound addition using the xCelligence system (ACEA Biosciences/Roche applied sciences).
The Cell index was normalized against the cell index values at a time point just before compound addition. […] EC50 and IC50 of the Met inhibitor can be derived from the CI versus the corresponding log concentration of the inhibitor.

[2] = test system: 10T1/2 tva-H1047R; test: Impedance-based TCRP of 10T1/2 tva-H1047R cells expressing human p110α (H1047R); type: cell-based, mouse; details: 10T1/2 tva-H1047R; serum starved; from 0 to 10 uM
Protocol: (§2) Cells were serum starved for 5 hour. The cell index was normalized at time of compound addition. At the indicated time point of treatment, increasing concentrations of PI103 (0-10 uM) was added to the cells and the cell responses were monitored.
as §1
A mouse fibroblast 10T1/2 expressing the cell-surface receptor TVA, which is specific for subgroup-A avian retroviruses was used. […] A549 is a human lung cancer cell line expressing wild-type p110α. T47D and BT20 are human breast cancer cell lines expressing mutant p110α (T47D) and p110α (P539R/H1047R), respectively.
(§3) Then the normal growth medium (10% FBS) was exchanged with medium containing 0% FBS. The cells were incubated for additional 5 hours before compound treatment. A PI3K inhibitor (PI103) at different concentrations in DMSO was added into wells following the incubation period. The cell status was monitored prior to and after the compound addition using xCelligence system (Roche applied sciences). […] Cell index of the cells treated with solvent DMSO control was used as baseline. The Cell index was normalized against the cell index values at a time point just before compound addition.

[3] = test system: 10T1/2 tva; test: Impedance-based TCRP of control cell line 10T1/2 tva; design: species or system mouse; details: 10T1/2 tva control cell line; from 0 to 10 uM
Protocol: as §2, §1
A mouse fibroblast 10T1/2 expressing the cell-surface receptor TVA, which is specific for subgroup-A avian retroviruses was used.
as §3

Compound	TCRP (Cell Index response) ([1]; H1993)	TCRP (Cell Index response) [2]	TCRP (Cell Index response) [3]	further results
CC1=C(C(=O)Nc2cc3cn[nH]c3cc2F)C(c2ccc(C(F)(F)F)cc2)CC(=O)N1 (stereo not shown) [GSK429286]	None of these inhibitors induced a TCRP similar to PF2341006	–	–	–
COc1cccc(-c2cc(=O)c3ccccc3o2)c1N [PD98059]	None of these inhibitors induced a TCRP similar to PF2341006	did not introduce significant cell index changes in either cell line	did not introduce significant cell index changes in either cell line	–
CCCCCCOC(=O)[C@]1(O)C[C@@H]2O[C@@]1(C)n1c3ccccc3c3c4c(c5c6ccccc6n2c5c31)C(=O)NC4 [KT5720]	–	did not introduce significant cell index changes in either cell line	did not introduce significant cell index changes in either cell line	–
AKT inhibitor IV	None of these inhibitors induced a TCRP similar to PF2341006	–	–	–
C[S+]([O-])c1ccc(-c2nc(-c3ccncc3)c(-c3ccc(F)cc3)[nH]2)cc1 (stereo not shown) [SB203580]	None of these inhibitors induced a TCRP similar to PF2341006	–	–	–
CN([C@@H](Cc1ccc(OS(=O)(=O)c2cccc3cnccc23)cc1)C(=O)N1CCN(c2ccccc2)CC1)S(=O)(=O)c1cccc2cnccc12 [CaM kinase inhibitor]	–	did not introduce significant cell index changes in either cell line	did not introduce significant cell index changes in either cell line	–
COC(=O)[C@@]1(OC)C[C@H]2O[C@]1(C)n1c3ccccc3c3c4c(c5c6ccccc6n2c5c31)C(=O)N(C)C4 [KT5823]	–	did not introduce significant cell index changes in either cell line	did not introduce significant cell index changes in either cell line	–
C[C@@H](Oc1cc(-c2cnn(C3CCNCC3)c2)cnc1N)c1c(Cl)ccc(F)c1Cl [PF02341066, Crizotinib]	–	–	–	IC50 ([1]; Homo sapiens, NCI-H1993, 200 h): 3.23 nM; EC50 ([1]; Homo sapiens, NCI-H1993, H1993, short-term (10 hours post compound treatment) CI): 2 nM; IC50 [1]: 1.87 nM
CO[C@H]1C[C@@H]2CC[C@@H](C)[C@@](O)(O2)C(=O)C(=O)N2CCCC[C@H]2C(=O)O[C@H]([C@H](C)C[C@@H]2CC[C@@H](OC(=O)C(C)(CO)CO)[C@H](OC)C2)CC(=O)[C@H](C)/C=C(\C)[C@@H](O)[C@@H](OC)C(=O)[C@H](C)C[C@H](C)/C=C/C=C/C=C/1C [Temsirolimus]	–	triggered 10T1/2-tva-H1047R specific cell index drop	not present in the control cell line 10T1/2-tva	–
O=c1cc(CN2CCOCC2)occ1OCCCCCSc1ccnc2cc(C(F)(F)F)ccc12 [EHT1864]	None of these inhibitors induced a TCRP similar to PF2341006	–	–	–
CN[C@@H]1C[C@H]2O[C@@](C)([C@@H]1OC)n1c3ccccc3c3c4c(c5c6ccccc6n2c5c31)C(=O)NC4 [Staurosporine]	–	cell index decreases in both the control cell line and H1047R cell line	cell index decreases in both the control cell line and H1047R cell line	–
CC[C@]1(O)C[C@H]2CN(CCc3c([nH]c4ccccc34)[C@@](C(=O)OC)(c3cc4c(cc3OC)N(C=O)[C@H]3[C@@](O)(C(=O)OC)[C@H](OC(C)=O)[C@]5(CC)C=CCN6CC[C@]43[C@@H]65)C2)C1 [vincristine]	–	cell index decreases in both the control cell line and H1047R cell line	cell index decreases in both the control cell line and H1047R cell line	–
